Measurements as given in US20250270172A1, “Pyrimidine Derivatives As Modulators of the 5-HT2A Serotonin Receptor Useful For The Treatment of Disorders Related Thereto” (Arena Pharmaceuticals, Inc., priority 2020, published 2025).
pIC50, pKi: −log10 of the molar value. Like-named read-outs stand apart in the source and are kept apart here.

What was measured:
[1] = target: 5-HT2C (Homo sapiens (Human), UniProt P28335); experiment: HTRF IP-One antagonist assay, 5-HT2C; type: cell-based; conditions: HEK293 cells stably expressing receptor, inositol phosphate accumulation, 80 nM 5-HT in Assay Buffer;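 also: clonal HEK293 line with low 5-HT2C density (10–20 fmol/mg), HTRF detection of IP-One, 10-point dose curves from 10 µM in 5-fold steps, triplicate points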
Chain of 5-HT2C (P28335 33-458): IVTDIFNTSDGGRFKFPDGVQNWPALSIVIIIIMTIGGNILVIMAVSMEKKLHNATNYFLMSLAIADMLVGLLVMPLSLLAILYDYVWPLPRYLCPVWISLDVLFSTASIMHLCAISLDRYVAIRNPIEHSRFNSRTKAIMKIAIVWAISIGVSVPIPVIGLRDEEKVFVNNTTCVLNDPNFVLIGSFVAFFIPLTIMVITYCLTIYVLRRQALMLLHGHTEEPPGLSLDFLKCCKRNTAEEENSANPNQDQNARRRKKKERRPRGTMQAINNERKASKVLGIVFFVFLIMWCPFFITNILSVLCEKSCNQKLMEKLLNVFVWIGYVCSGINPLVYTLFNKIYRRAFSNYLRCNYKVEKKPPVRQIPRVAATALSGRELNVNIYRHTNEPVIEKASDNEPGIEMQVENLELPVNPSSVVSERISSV

[2] = target: T1, 5-HT2A (Homo sapiens (Human), UniProt P28223); experiment: Radioligand binding assay, [^3H]5-HT competition, 5-HT2A; conditions: read-out: 5-HT2A serotonin binding Ki value
T1 sequence (P28223 whole entry): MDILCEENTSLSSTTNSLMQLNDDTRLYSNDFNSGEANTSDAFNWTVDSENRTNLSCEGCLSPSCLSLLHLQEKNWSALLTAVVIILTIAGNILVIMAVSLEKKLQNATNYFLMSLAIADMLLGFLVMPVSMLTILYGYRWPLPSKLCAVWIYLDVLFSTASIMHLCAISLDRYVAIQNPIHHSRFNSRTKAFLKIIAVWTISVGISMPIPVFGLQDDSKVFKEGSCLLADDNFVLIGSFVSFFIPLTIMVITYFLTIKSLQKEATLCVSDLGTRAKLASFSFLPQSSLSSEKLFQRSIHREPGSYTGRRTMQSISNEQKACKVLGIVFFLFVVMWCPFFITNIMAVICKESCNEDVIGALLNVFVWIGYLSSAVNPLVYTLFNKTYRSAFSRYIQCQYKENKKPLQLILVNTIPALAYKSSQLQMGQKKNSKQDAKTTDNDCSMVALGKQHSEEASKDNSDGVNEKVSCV

[3] = target: T1, 5-HT2A; experiment: HTRF IP-One antagonist assay, 5-HT2A; type: cell-based; conditions: HEK293 cells stably expressing receptor, inositol phosphate accumulation, 80 nM 5-HT in Assay Buffer;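 also: clonal line with low receptor density (about 50–70 fmol/mg), 10-point dose-response from 10 µM in 5-fold steps, HTRF detection after 1 hr, triplicate points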
[4] = target: 5-HT2B (Homo sapiens (Human), UniProt P41595); experiment: HTRF IP-One antagonist assay, 5-HT2B; type: cell-based; conditions: HEK293 cells stably expressing receptor, inositol phosphate accumulation, 80 nM 5-HT in Assay Buffer;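 also: clonal HEK293 line with low 5-HT2B expression (estimated 150-200 fmol/mg by radioligand binding), IP-One HTRF readout, 10-point curves from 10 µM in 5-fold steps, triplicate points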
Chain of 5-HT2B (P41595 whole entry): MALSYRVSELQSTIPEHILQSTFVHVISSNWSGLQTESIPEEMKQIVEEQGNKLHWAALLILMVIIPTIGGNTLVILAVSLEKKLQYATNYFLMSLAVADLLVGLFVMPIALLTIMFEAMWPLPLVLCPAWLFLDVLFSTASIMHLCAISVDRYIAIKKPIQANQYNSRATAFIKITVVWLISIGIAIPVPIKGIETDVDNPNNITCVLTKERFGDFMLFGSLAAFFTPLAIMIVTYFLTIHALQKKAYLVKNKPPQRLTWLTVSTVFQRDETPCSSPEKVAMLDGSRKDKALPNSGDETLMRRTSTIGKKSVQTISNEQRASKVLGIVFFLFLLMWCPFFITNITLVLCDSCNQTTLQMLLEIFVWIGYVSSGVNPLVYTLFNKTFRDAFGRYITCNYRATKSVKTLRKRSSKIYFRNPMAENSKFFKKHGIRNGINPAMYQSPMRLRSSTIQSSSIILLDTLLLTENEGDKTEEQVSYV

[5] = [^3H]5-HT radioligand, membranes of HEK293 cells expressing recombinant 5-HT2A, Ki from IC50 by Cheng-Prusoff

Cc1ncnc(C)c1-c1cc(NC(=O)c2ccccc2)ccc1OC1CNC1 [Compound 400, N-(4-(azetidin-3-yloxy)-3-(4,6-dimethylpyrimidin-5-yl)phenyl)benzamide]
pIC50 [1]: 4.00 | pKi [2, 5]: 8.38 | pIC50 [3]: 7.41 | pIC50 [4]: 4.00

Cc1ncnc(C)c1-c1cc(NC(=O)c2ccccc2F)ccc1OCCN1CCC1 [Compound 319, N-(4-(2-(azetidin-1-yl)ethoxy)-3-(4,6-dimethylpyrimidin-5-yl)phenyl)-2-fluorobenzamide]
pIC50 [1]: 4.00 | pKi [2, 5]: 8.44 | pIC50 [3]: 7.84 | pIC50 [4]: 5.63

Cc1ncnc(C)c1-c1cc(NC(=O)c2ccnn2C)ccc1OCCN1CCCC1 [Compound 202, N-(3-(4,6-dimethylpyrimidin-5-yl)-4-(2-(pyrrolidin-1-yl)ethoxy)phenyl)-1-methyl-1H-pyrazole-5-carboxamide]
pIC50 [1]: 4.00 | pKi [2, 5]: 8.28 | pIC50 [3]: 8.20 | pIC50 [4]: 4.00

Cc1ncnc(C)c1-c1cc(NC(=O)c2cc(F)ccn2)ccc1OCCN1CCCC1 [Compound 209, N-(3-(4,6-dimethylpyrimidin-5-yl)-4-(2-(pyrrolidin-1-yl)ethoxy)phenyl)-4-fluoropicolinamide]
pIC50 [1]: 4.00 | pKi [2, 5]: 8.32 | pIC50 [3]: 7.58 | pIC50 [4]: 4.00

Cc1ncnc(C)c1-c1cc(NC(=O)c2ccccc2)ccc1OCCN1CCCC1 [Compound 271, N-[3-(4,6-dimethylpyrimidin-5-yl)-4-(2-pyrrolidin-1-ylethoxy)phenyl]benzamide]
pIC50 [1]: 4.00 | pKi [2, 5]: 8.49 | pIC50 [3]: 8.21 | pIC50 [4]: 4.00

Cc1ncsc1C(=O)Nc1ccc(OCCN2CCCC2)c(-c2c(C)ncnc2C)c1 [Compound 214, N-(3-(4,6-dimethylpyrimidin-5-yl)-4-(2-(pyrrolidin-1-yl)ethoxy)phenyl)-4-methylthiazole-5-carboxamide]
pIC50 [1]: 4.00 | pKi [2, 5]: 8.49 | pIC50 [3]: 8.29 | pIC50 [4]: 4.00

Cc1ncsc1CC(=O)Nc1ccc(OCCN2CCCC2)c(-c2c(C)ncnc2C)c1 [Compound 250, N-(3-(4,6-dimethylpyrimidin-5-yl)-4-(2-(pyrrolidin-1-yl)ethoxy)phenyl)-2-(4-methylthiazol-5-yl)acetamide]
pIC50 [1]: 4.00 | pKi [2, 5]: 8.04 | pIC50 [3]: 7.86 | pIC50 [4]: 4.00

Cc1ncsc1CC(=O)Nc1ccc(OCCN2CCC2)c(-c2c(C)ncnc2C)c1 [Compound 307, N-(4-(2-(azetidin-1-yl)ethoxy)-3-(4,6-dimethylpyrimidin-5-yl)phenyl)-2-(4-methylthiazol-5-yl)acetamide]
pIC50 [1]: 4.00 | pKi [2]: 8.23 | pIC50 [3]: 8.01 | pIC50 [4]: ≤ 4.00

Cc1ncnc(C)c1-c1cc(NC(=O)C2CC2)ccc1OCCN1CCC1 [Compound 344, N-(4-(2-(azetidin-1-yl)ethoxy)-3-(4,6-dimethylpyrimidin-5-yl)phenyl)cyclopropanecarboxamide]
pIC50 [1]: 4.00 | pKi [2, 5]: 8.19 | pIC50 [3]: 7.99 | pIC50 [4]: 5.92

COc1cccc(C(=O)Nc2ccc(OCCN3CCC3)c(-c3c(C)ncnc3C)c2)c1 [Compound 310, N-(4-(2-(azetidin-1-yl)ethoxy)-3-(4,6-dimethylpyrimidin-5-yl)phenyl)-3-methoxybenzamide]
pIC50 [1]: 4.00 | pKi [2, 5]: 8.80 | pIC50 [3]: 8.48 | pIC50 [4]: 5.72
